Laboratory results: ChEMBL document CHEMBL1201862, “PubChem BioAssay data set” (2004)
The source made the active and inactive calls.

Legend:
[1] = target: T1, Alkaline phosphatase, tissue-nonspecific isozyme (Homo sapiens, UniProt P05186)
T1 sequence (P05186 whole entry): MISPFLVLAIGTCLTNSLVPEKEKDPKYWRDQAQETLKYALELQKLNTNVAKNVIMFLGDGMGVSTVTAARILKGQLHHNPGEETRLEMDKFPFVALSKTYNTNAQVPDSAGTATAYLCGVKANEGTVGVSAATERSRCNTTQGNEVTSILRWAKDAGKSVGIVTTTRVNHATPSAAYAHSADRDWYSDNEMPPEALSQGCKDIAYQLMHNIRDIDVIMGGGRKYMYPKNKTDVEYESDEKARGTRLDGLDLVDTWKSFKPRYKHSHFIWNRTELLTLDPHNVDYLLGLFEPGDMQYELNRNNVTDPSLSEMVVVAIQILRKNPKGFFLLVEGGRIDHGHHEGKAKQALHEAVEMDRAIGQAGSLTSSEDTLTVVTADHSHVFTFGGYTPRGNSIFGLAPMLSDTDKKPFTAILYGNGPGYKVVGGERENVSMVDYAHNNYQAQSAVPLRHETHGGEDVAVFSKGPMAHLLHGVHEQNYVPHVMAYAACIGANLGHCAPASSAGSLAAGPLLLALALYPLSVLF

[2] = target: T1, Alkaline phosphatase, tissue-nonspecific isozyme; assay: TNAP enzyme inhibition by screening hits, dose response, selectivity assay for mouse IAP inhibitor project, biochemical, human TNAP, uHTS hits (AID 488906); assay type: functional
[3] = target: Intestinal-type alkaline phosphatase (Mus musculus, UniProt P24822); assay: PubChem AID 488785; assay type: functional
[4] = inhibitors of intracellular T. cruzi replication, confirmation, NIH3T3 host cells, beta-gal luminescence (AID 2044); assay type: functional, cell-based;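 also: intracellular parasites grown in NIH/3T3 mouse fibroblasts as host cells; luminescent beta-galactosidase reporter signal from transgenic T. cruzi replicating inside host cells; inhibitors lower the luminescence signal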
[5] = cytotoxicity toward NIH3T3 fibroblasts, dose response, counter-screen, cell-based, ATP luminescence, mouse fibroblasts (AID 2010); assay type: functional;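 also: cells exposed to compound for about 90 hours before reading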
[6] = target: Intestinal-type alkaline phosphatase (Homo sapiens, UniProt P09923); assay: activation of human intestinal alkaline phosphatase – biochemical, dose response (AID 488873); assay type: functional
[7] = target: Phosphoethanolamine/phosphocholine phosphatase (Homo sapiens, UniProt Q8TCT1); assay: SAR assay for compounds that inhibit PHOSPHO1. [Related pubchem assays (depositor defined):AID1545, AID1565, AID1574]
[8] = target: T2, Mannose-6-phosphate isomerase (Homo sapiens, UniProt P34949); assay: PMI enzyme inhibitors, confirmation, biochemical, fluorescence intensity (AID 1535)
T2 sequence (P34949 whole entry): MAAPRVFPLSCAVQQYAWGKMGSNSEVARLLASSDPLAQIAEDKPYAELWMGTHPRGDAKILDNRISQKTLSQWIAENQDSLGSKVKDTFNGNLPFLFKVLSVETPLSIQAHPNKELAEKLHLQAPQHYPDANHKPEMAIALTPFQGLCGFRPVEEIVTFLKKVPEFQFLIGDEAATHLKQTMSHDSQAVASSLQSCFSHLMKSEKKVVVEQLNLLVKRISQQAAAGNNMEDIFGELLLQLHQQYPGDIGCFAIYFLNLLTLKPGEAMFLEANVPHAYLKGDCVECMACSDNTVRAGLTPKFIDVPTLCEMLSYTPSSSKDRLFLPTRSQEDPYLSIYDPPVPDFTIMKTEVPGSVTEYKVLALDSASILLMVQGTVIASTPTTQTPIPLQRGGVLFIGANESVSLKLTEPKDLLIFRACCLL

Phosphomannomutase 2 = target: T3, Phosphomannomutase 2 (Homo sapiens, UniProt O15305); assay: Counter screen SAR assay for PMM2 inhibitors via a fluorescence intensity assay. [Related pubchem assays (depositor defined):AID1545, AID1574]
T3 sequence (O15305 whole entry): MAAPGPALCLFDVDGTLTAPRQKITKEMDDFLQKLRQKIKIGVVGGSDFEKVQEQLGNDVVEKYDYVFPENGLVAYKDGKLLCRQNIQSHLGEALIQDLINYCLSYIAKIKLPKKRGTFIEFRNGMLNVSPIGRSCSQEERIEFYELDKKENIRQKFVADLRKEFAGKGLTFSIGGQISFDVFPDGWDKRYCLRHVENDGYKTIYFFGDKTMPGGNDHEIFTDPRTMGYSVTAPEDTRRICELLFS

[9] = target: DNA dC->dU-editing enzyme APOBEC-3A (Homo sapiens, UniProt P31941); assay: APOBEC3A DNA deaminase inhibitors, dose response, biochemical (AID 504722); assay type: functional
[10] = target: DNA dC->dU-editing enzyme APOBEC-3G (Homo sapiens, UniProt Q9HC16); assay: Dose Response confirmation of small molecule APOBEC3G DNA Deaminase Inhibitors via a fluorescence-based single-stranded DNA deaminase assay. [Related pubchem assays (depositor defined):AID493012, AID493028]; assay type: functional
[11] = target: G-protein coupled receptor 55 (Homo sapiens, UniProt Q9Y2T6); assay: GPR55 antagonists blocking LPI-driven arrestin recruitment, primary screen, imaging, U2OS, beta-arrestin-GFP, LPI agonist (AID 2013); assay type: functional;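 also: antagonist potency measured as reduced agonist-driven arrestin aggregation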
Sequence of G-protein coupled receptor 55 (Q9Y2T6 whole entry): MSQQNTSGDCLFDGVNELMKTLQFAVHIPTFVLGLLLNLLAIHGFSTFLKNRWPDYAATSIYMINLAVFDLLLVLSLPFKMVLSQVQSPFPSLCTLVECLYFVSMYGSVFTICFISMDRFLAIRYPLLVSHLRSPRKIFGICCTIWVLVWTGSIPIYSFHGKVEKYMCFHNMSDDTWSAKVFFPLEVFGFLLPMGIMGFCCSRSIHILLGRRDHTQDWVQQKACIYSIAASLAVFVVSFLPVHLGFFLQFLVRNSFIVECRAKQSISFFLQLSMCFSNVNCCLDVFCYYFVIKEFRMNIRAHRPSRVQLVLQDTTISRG

Sequence of DNA dC->dU-editing enzyme APOBEC-3A (P31941 whole entry): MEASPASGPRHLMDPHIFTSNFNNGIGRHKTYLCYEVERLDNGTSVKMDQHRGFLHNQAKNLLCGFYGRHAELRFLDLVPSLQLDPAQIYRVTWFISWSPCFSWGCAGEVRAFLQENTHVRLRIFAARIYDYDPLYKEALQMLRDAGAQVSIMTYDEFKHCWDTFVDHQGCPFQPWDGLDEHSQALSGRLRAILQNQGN
Sequence of DNA dC->dU-editing enzyme APOBEC-3G (Q9HC16 whole entry): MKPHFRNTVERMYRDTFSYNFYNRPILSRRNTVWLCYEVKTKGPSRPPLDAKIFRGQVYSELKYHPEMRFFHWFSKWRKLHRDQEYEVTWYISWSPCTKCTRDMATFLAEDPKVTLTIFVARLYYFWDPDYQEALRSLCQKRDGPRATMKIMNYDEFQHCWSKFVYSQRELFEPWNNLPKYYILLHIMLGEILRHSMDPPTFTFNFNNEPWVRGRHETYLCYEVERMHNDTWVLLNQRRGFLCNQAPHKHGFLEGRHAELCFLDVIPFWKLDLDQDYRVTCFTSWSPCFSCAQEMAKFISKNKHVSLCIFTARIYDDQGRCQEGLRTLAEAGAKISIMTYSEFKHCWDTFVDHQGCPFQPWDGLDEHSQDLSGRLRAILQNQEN
Sequence of Intestinal-type alkaline phosphatase (Homo sapiens, UniProt P09923) (P09923 whole entry): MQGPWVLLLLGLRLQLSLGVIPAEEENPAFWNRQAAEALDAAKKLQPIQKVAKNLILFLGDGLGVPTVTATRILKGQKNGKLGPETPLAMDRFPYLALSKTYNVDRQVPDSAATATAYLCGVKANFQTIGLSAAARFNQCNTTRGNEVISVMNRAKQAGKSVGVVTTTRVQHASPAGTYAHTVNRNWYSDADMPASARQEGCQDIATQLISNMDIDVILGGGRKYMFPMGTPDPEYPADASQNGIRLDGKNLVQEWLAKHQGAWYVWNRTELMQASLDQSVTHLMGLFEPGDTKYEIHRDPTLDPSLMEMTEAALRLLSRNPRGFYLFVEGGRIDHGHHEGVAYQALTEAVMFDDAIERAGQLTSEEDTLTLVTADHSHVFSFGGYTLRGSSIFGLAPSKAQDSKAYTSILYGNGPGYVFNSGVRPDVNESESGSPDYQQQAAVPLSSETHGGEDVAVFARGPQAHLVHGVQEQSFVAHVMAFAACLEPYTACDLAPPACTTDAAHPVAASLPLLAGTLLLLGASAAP
Sequence of Intestinal-type alkaline phosphatase (Mus musculus, UniProt P24822) (P24822 whole entry): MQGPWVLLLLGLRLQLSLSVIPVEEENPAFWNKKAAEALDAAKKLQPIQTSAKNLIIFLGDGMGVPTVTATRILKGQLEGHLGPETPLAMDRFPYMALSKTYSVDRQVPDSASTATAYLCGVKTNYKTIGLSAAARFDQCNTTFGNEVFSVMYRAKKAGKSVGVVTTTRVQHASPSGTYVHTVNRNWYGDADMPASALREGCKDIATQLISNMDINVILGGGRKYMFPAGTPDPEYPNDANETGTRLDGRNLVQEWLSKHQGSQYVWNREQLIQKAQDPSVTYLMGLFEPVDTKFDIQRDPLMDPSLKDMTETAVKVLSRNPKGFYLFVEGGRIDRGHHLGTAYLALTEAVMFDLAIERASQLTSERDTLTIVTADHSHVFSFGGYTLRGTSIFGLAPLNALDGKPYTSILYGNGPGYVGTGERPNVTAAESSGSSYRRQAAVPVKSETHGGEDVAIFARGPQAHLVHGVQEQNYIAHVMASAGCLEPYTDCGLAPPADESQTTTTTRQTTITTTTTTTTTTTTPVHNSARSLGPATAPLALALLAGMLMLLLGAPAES
Sequence of Phosphoethanolamine/phosphocholine phosphatase (Q8TCT1 whole entry): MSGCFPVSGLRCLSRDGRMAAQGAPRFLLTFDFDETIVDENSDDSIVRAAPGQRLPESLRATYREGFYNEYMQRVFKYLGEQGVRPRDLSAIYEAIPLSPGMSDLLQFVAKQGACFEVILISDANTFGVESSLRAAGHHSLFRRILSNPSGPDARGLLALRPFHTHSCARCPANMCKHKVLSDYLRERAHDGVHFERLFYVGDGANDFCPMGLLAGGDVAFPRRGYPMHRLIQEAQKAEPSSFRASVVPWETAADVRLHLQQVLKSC

## CCOC(=O)c1ccc(N2CCN(c3ccccc3F)CC2)c(NC(=O)Nc2cccc(OC)c2)c1
[1]
  EC50: > 100 µM (not active)
[2]
  IC50: > 100 µM (inactive)
[3]
  IC50: 6.54 µM (active)
[4]
  EC50: 1.39 µM (active)
[5]
  EC50: > 60 µM (inconclusive)
[6]
  EC50: > 100 µM (inactive)

## O=c1c2ccccc2sn1-c1cccc(C(F)(F)F)c1
[7]
  IC50: 11.6 µM (inactive)
[8]
  IC50: 23.7 µM (active)
Phosphomannomutase 2
  IC50: > 100 µM (inactive)

## COc1ccc(OCc2nnc(S)n2Cc2ccco2)cc1
[9]
  IC50: > 100 µM (inactive)
[10]
  IC50: 3.88 µM (active)

## CC(=O)Oc1ccc2ccccc2c1C(NC(=O)Cc1ccccc1)c1ccccc1 (centres undefined)
[11]
  IC50: 1.27 µM (active)

## Fc1cccc(Cl)c1/C=N/n1c(S)nnc1-c1cccnc1
[9]
  IC50: > 100 µM (inactive)
[10]
  IC50: 2.73 µM (active)
